Reference: patent US20260365696A1, “INHIBITORS OF PTP1B / NCK1 INTERACTION AND METHODS OF MAKING AND USING SAME” (Radella Pharmaceuticals LLC, priority 2023, published 2026)
pKd: −log10 of the molar value.

Target: T1, SH3-2 domain of NCK1 (Homo sapiens, UniProt P16333)
T1 construct: To amplify the NCK1 SH3-2 domain, the primers; 10xHis tag with TEV site (vector pSF-OXB20-NH2-10HIS) (N, cleaved yes); made in house; host or cells: E. coli C43(DE3)
Test: Isothermal titration calorimetry (ITC) binding to NCK1 SH3-2 domain
Conditions: substitutions at position 1 of MD18; ITC, 25 °C, pH 8.0
Description: Human PTP1B cDNA (NM_002827) and human NCK1 cDNA (NM 006153) were obtained (Origene, MD, USA). PTP1B Primers were designed to amplify the ORFs with added homology to the cut vector (EcoRI-digested pSF-OXB20-NH2-10HIS) in the forward primer sequence. To amplify full-length PTP1B, the primers ptp1b_FL_fwd ([…]) (SEQ ID NO: 159) and ptp1b_FL_rev ([…]) (SEQ ID NO: 160) were used. To amplify truncations of PTP1B, the following primer pairs were used: ptp1b_FL-Fwd and one of Ptplb_323stop_rev (gtgcaggaggagttcgaatt[…]) (SEQ ID NO: 161), ptp1b_344stop_rev ([…]) (SEQ ID NO: 162) or ptp1b_278stop_rev([…]) (SEQ ID NO: 163). To amplify the NCK1 SH3-2 domain, the primers ncklsh32_fwd ([…]) (SEQ ID NO: 164) and ncklsh32_rev ([…]) (SEQ ID NO: 165) were used. The amplified fragments were purified using a DNA clean-up kit according to manufacturer's instructions (QIAquick PCR purification kit, Qiagen).
To produce and purify fusion proteins, a culture was inoculated with 1% of overnight-cultured inoculum. Protein expression was carried out under the conditions described above, scaled up as necessary. Cells expressing the recombinant proteins were harvested in 50 mL tubes by centrifugation and stored at −80 °C. Cells containing the expressed gene product were thawed over ice and resuspended in Extraction buffer (10 mM Tris, pH 7.4 or 10 mM Sodium Phosphate, pH 8.0; 300 mM NaCl, 1 mM DTT or TCEP; 0-10% glycerol and 1 μg lysozyme) and sonicated over ice (4 °C) for 3 min total using pulses of 5 s with 15 s intervals, using a wide probe at 15 amplitude microns (Soniprep 150, MSE). Insoluble material was removed from the lysate by centrifugation at 20K rpm for 20-60 min at 4 °C. Supernatant was filtered through a 0.22 μm PVDF filter membrane and applied to 1-2 5 mL HisTrap FF Crude (Cytiva) prepacked Ni columns and connected to an AKTA explorer. After thorough washing with binding buffer (10 mM Tris, pH 7.4 or 10 mM Sodium Phosphate, pH 8.0; 300 mM NaCl; 1 mM DTT or TCEP and 25 mM Imidazole), protein was eluted using elution buffer (10 mM Tris, pH 7.4 or 10 mM Sodium Phosphate, pH 8.0; 150-300 mM NaCl; 1 mM DTT or TCEP and 250 mM Imidazole). Fractions containing protein of interest were confirmed by SDS PAGE. Protein was diluted with GF buffer (10 mM Tris, pH 7.4 or 10 mM Sodium Phosphate, pH 8.0; 150-300 mM NaCl) and subjected to TEV protease treatment overnight at 4-10 °C. Following proteolytic digestion, HIS-tag and TEV protease were removed by filtration through a clean 5 mL HisTrap FF Crude (Cytiva) prepacked Ni column. Protein was concentrated on a PES ultrafiltration device by centrifugation at 4000 rpm at 4 °C, and protein was polished via a HiPrep S-100 26/60 (Cytiva) using GF buffer (as described above). Purified proteins were concentrated using ultrafiltration, and protein concentration was determined using ultraviolet-visible spectroscopy. The integrity and identity of all proteins were verified by mass spectrographic analysis.
Isothermal titration calorimetry (ITC) was used to determine binding affinities for peptides against the SH3-2 domain of NCK1. Experiments were conducted at 25 °C using either a MicroCal iTC200 or MicroCal PEAQ-ITC calorimeter. The buffer used for all ITC experiments was 10 mM sodium [COMPOUND LEFT OUT] mM sodium chloride (pH=8.0). A series of peptides (concentration 3-7.5 mM) were titrated in to NCK1 SH3-2 domain (concentration 0.125-0.3 mM) using the following conditions: one injection of 0.2 μL followed by 19 injections of 2 μL, 120-150 seconds spacing between injections, at 25 °C. The data were fit using analysis software provided by the manufacturer and affinity values were calculated. The best fitting occurred when the number of sites was between 0.8 and 1.2. The experiments were repeated twice for a total of three times, and the average binding affinity for each peptide was generated. […]

pKd | Substance
≥ 3.52 | Ac-SPRPPKR-NH2 [MH074, Ac-SPRPPKR-NH2]
≥ 3.52 | Ac-RPRPPKR-NH2 [MH068, Ac-RPRPPKR-NH2]
≥ 3.52 | Ac-FPRPPKR-NH2 [MH073, Ac-FPRPPKR-NH2]
≥ 3.52 | Ac-IPRPPKR-NH2 [MH095, Ac-IPRPPKR-NH2]
≥ 3.52 | Ac-NPRPPKR-NH2 [MH069, Ac-NPRPPKR-NH2]
≥ 3.52 | Ac-DPRPPKR-NH2 [MH083, Ac-DPRPPKR-NH2]
≥ 3.52 | Ac-CPRPPKR-NH2 [MH070, Ac-CPRPPKR-NH2]

Same assay, conditions: substitutions at position 3 of MD18; ITC, 25 °C, pH 8.0

pKd | Substance
≥ 3.52 | Ac-PPVPPKR-NH2 [MH124, Ac-PPVPPKR-NH2]
≥ 3.52 | Ac-PPMPPKR-NH2 [MH110, Ac-PPMPPKR-NH2]
≥ 3.52 | Ac-PPPPPKR-NH2 [MH106, Ac-PPPPPKR-NH2]

The next lines start with the substance.

Substance | pKd
Ac-PPCPPKR-NH2 [MH061, Ac-PPCPPKR-NH2] | ≥ 3.52
Ac-PPKPPKR-NH2 [MH055, Ac-PPKPPKR-NH2] | ≥ 3.52
Ac-PPGPPKR-NH2 [MH092, Ac-PPGPPKR-NH2] | 3.00 to 3.22
Ac-PPHPPKR-NH2 [MH057, Ac-PPHPPKR-NH2] | ≥ 3.52
Ac-PPDPPKR-NH2 [MH084, Ac-PPDPPKR-NH2] | ≥ 3.52
Ac-PPFPPKR-NH2 [MH066, Ac-PPFPPKR-NH2] | ≥ 3.52
Ac-PPEPPKR-NH2 [MH058, Ac-PPEPPKR-NH2] | ≥ 3.52
Ac-PPNPPKR-NH2 [MH060, Ac-PPNPPKR-NH2] | ≥ 3.52
Ac-PPSPPKR-NH2 [MH059, Ac-PPSPPKR-NH2] | ≥ 3.52

Same assay, conditions: substitutions at position 4 of MD18 in a 7-mer; ITC, 25 °C, pH 8.0

pKd | Substance
< 3.00 | Ac-PPRMPKR-NH2 [MH111, Ac-PPRMPKR-NH2]
3.22 to 3.52 | Ac-PPRKPKR-NH2 [MH104, Ac-PPRKPKR-NH2]
< 3.00 | Ac-PPRHPKR-NH2 [MH132, Ac-PPRHPKR-NH2]
≥ 3.52 | Ac-PPRIPKR-NH2 [MH097, Ac-PPRIPKR-NH2]
< 3.00 | Ac-PPREPKR-NH2 [MH130, Ac-PPREPKR-NH2]
≥ 3.52 | Ac-PPRVPKR-NH2 [MH125, Ac-PPRVPKR-NH2]

Continued, substance first:

Substance | pKd
Ac-PPRGPKR-NH2 [MH093, Ac-PPRGPKR-NH2] | < 3.00
Ac-PPRFPKR-NH2 [MH067, Ac-PPRFPKR-NH2] | 3.00 to 3.22

Same assay, conditions: substitutions at position 6 of MD18; ITC, 25 °C, pH 8.0

pKd | Substance
≥ 3.52 | Ac-PPRPPMR-NH2 [MH112, Ac-PPRPPMR-NH2]
≥ 3.52 | Ac-PPRPPSR-NH2 [MH052, Ac-PPRPPSR-NH2]
≥ 3.52 | Ac-PPRPPHR-NH2 [MH049, Ac-PPRPPHR-NH2]

Same assay, conditions: substitutions at position 8 of the 8-mer MH063; ITC, 25 °C, pH 8.0; certain peptides tested one to three times

pKd | Substance
≥ 3.52 | Ac-PPRPPKRN-NH2 [MH140]
≥ 3.52 | Ac-PPRPPKRL-NH2 [MH147]
3.22 to 3.52 | Ac-PPRPPKRP-NH2 [MH151]
≥ 3.52 | Ac-PPRPPKRD-NH2 [MH141]
≥ 3.52 | Ac-PPRPPKRW-NH2 [MH154]
≥ 3.52 | Ac-PPRPPKRK-NH2 [MH148]
≥ 3.52 | Ac-PPRPPKRM-NH2 [MH149]
